Reference: patent US9676789B2, “Aminated derivative of homoharringtonine, preparation method therefor, and application thereof” (HANGZHOU BENSHENG PHARMACEUTICAL CO., LTD., priority 2011, dated 2017)
≈ marks a conversion by molar mass, not a printed value.

Legend:
[1] = system: H9 (acute lymphoblastic leukemia, ALL); assay: MTT leukemia cell growth inhibition, 72 h; format: cell-based, human; details: Homo sapiens, H9, 72 h; for IC50: read-out: IC50; for IC90: read-out: IC90
From the text: (§1) Leukemia cell lines: K562/adr (drug-resistant, chronic myeloid leukemia, CML), NB4 (acute promyelocytic leukemia, AML), Kasumi-1 (acute myeloid leukemia M2 type, AML-M2), Jurkat (acute lymphoblastic leukemia, ALL), all of which are donated by Cancer Research Institute of Zhejiang University, China; and H9 (acute lymphoblastic leukemia, ALL), which is purchased from China Center for Type Culture Collection.
(§2) Obtaining 6000 well-growing leukemia cells and inoculating them into wells of a 96-well cell culture plate. The culture medium is the 1640 cell culture medium containing 10% fetal bovine serum. After adding the homoharringtonine derivatives of different concentrations and mixing uniformly, placing the plate in a carbon dioxide cell incubator (5% CO2) at 37° C. and incubating for 72 hours. Then the viable cell concentration is determined by the MTT method. In this experiment, the cell viability in control group (not treated with any compound) is set as 100%.

[2] = system: Kasumi-1 (acute myeloid leukemia M2 type, AML-M2); assay: MTT leukemia cell growth inhibition, 72 h; format: cell-based, human; details: Homo sapiens, Kasumi-1, 72 h; for IC50: read-out: IC50; for IC90: read-out: IC90
From the text: as §1, §2

[3] = system: K562/adr (drug-resistant, chronic myeloid leukemia, CML); assay: MTT leukemia cell growth inhibition, 72 h; format: cell-based, human; details: Homo sapiens, K562/Adr; for IC50: read-out: IC50; for IC90: read-out: IC90
From the text: as §1, §2

[4] = system: NB4 (acute promyelocytic leukemia, AML); assay: MTT leukemia cell growth inhibition, 72 h; format: cell-based, human; details: Homo sapiens, NB4, 72 h; for IC50: read-out: IC50; for IC90: read-out: IC90
From the text: as §1, §2

[5] = system: Jurkat (acute lymphoblastic leukemia, ALL); assay: MTT leukemia cell growth inhibition, 72 h; format: cell-based, human; details: Homo sapiens; for IC50: read-out: IC50; for IC90: read-out: IC90
From the text: as §1, §2

[6] = system: RPMI8226 (multiple myeloma); assay: MTT multiple myeloma cell growth inhibition, 72 h; format: cell-based, human; details: Homo sapiens, RPMI-8226, RPMI8226, 72 h; for IC50: read-out: IC50; for IC90: read-out: IC90
Procedure: Multiple myeloma and lymphoma cell lines: RPMI8226 (multiple myeloma), purchased from Fuxiang Bio-tech Co. Ltd., Shanghai, China.
Obtaining 6000 well-growing leukemia cells and inoculating them into wells of a 96-well cell culture plate. The culture medium is the 1640 cell culture medium containing 10% fetal bovine serum. After adding the homoharringtonine derivatives of different concentrations and mixing uniformly, placing the plate in a carbon dioxide cell incubator (5% CO2) at 37° C. and incubating for 72 hours. Then the viable cell concentration is determined by the MTT method.

[7] = system: Becap37 (human breast cancer cell); assay: MTT solid tumor cell growth inhibition, 72 h; format: cell-based; details: Homo sapiens, Becap37, 72 h; for IC50: read-out: IC50; for IC90: read-out: IC90
Procedure: (§3) Human solid tumor cell lines: Hep-2 ([…]), A549 (human lung cancer), CaES-17 (esophageal cancer cell), PC-3 (prostate cancer), CNE (nasopharyngeal carcinoma cell), and SK-OV-3 (ovarian cancer cell), all of which are purchased from China Center For Type Culture Collection; RKO (human colon adenocarcinoma cell), MGC 803 (human gastric cancer cell), MG63 (osteosarcoma) and U87 MG (malignant glioma cell), all of which are purchased from Fuxiang Bio-tech Co. Ltd., Shanghai, China; PANC-1 (pancreatic cancer), Huh7 (human liver cancer cell), Becap37 (human breast cancer cell), and Hela (human cervical cancer cell), all of which are donated by Cancer Research Institute of Zhejiang University, China.
(§4) Obtaining 4000 well-growing human solid tumor cells and inoculating them into wells of a 96-well cell culture plate. The culture medium is DMEM High Glucose cell culture medium containing 10% fetal bovine serum. The plate is placed in a carbon dioxide cell incubator (5% CO2) at 37° C. and incubating for 24 hours. After adding the homoharringtonine derivatives of different concentration and mixing uniformly, the plate is placed in a carbon dioxide cell incubator (5% CO2) at 37° C. and incubating for 72 hours. Then the viable cell concentration is determined by the MTT method and the cell viability (%) after drug treatment is calculated. In this experiment, the cell viability of control group (not treated with any compound) is set as 100%.

[8] = system: MGC 803 (human gastric cancer cell); assay: MTT solid tumor cell growth inhibition, 72 h; format: cell-based; details: Homo sapiens, MGC 803, 72 h; for IC50: read-out: IC50; for IC90: read-out: IC90
Procedure: as §3, §4

[9] = system: Huh7 (human liver cancer cell); assay: MTT solid tumor cell growth inhibition, 72 h; format: cell-based; details: Homo sapiens, Huh-7, Huh7, 72 h; for IC50: read-out: IC50; for IC90: read-out: IC90
Procedure: as §3, §4

A549 (human lung cancer) = assay: MTT solid tumor cell growth inhibition, 72 h; format: cell-based; details: Homo sapiens, A549, 72 h; for IC50: read-out: IC50; for IC90: read-out: IC90
Procedure: as §3, §4

MG63 (osteosarcoma) = assay: MTT solid tumor cell growth inhibition, 72 h; format: cell-based, human; details: Homo sapiens, MG 63, 72 h; for IC50: read-out: IC50; for IC90: read-out: IC90
Procedure: as §3, §4

[10] = system: PANC-1 (pancreatic cancer); assay: MTT solid tumor cell growth inhibition, 72 h; format: cell-based, human; details: Homo sapiens, PANC-1, 72 h; for IC50: read-out: IC50; for IC90: read-out: IC90
Procedure: as §3, §4

SMILES | IC50 [1] | IC90 [1] | IC50 [2] | IC90 [2] | IC50 [3] | IC90 [3] | IC50 [4] | IC90 [4] | IC50 [5] | IC90 [5] | IC50 [6] | IC90 [6] | IC50 [7] | IC90 [7] | IC50 [9] | IC90 [9] | IC50 (A549 (human lung cancer)) | IC90 (A549 (human lung cancer)) | IC50 (MG63 (osteosarcoma)) | IC90 (MG63 (osteosarcoma)) | further results
COCCCNC(=O)C[C@](O)(CCCC(C)(C)O)C(=O)O[C@@H]1C(OC)=C[C@]23CCCN2CCc2cc4c(cc2[C@H]13)OCO4 [BS-HH-028] | 6.52 µg/mL (≈ 10.8 µM) | > 16 µg/mL | 2.75 µg/mL (≈ 4.56 µM) | 13 µg/mL (≈ 21.6 µM) | > 16 µg/mL | > 16 µg/mL | 2.59 µg/mL (≈ 4.3 µM) | 7.52 µg/mL (≈ 12.5 µM) | 3.56 µg/mL (≈ 5.91 µM) | 15 µg/mL (≈ 25 µM) | 4.92 µg/mL (≈ 8.16 µM) | > 16 µg/mL | 13.1 µg/mL (≈ 21.8 µM) | > 16 µg/mL | 5.93 µg/mL (≈ 9.84 µM) | > 16 µg/mL | 16 µg/mL (≈ 26.5 µM) | > 16 µg/mL | 6.8 µg/mL (≈ 11.3 µM) | > 16 µg/mL | IC50 [8]: 8.62 µg/mL (≈ 14.3 µM); IC90 [8]: 24.3 µg/mL (≈ 40.4 µM); IC50 [10]: 16 µg/mL (≈ 26.5 µM); IC90 [10]: > 16 µg/mL
COC1=C[C@]23CCCN2CCc2cc4c(cc2[C@@H]3[C@@H]1OC(=O)[C@@](O)(CCCC(C)(C)O)CC(=O)N1CCC(C#N)CC1)OCO4 [BS-HH-035] | 5.49 µg/mL (≈ 8.8 µM) | > 16 µg/mL | 0.8 µg/mL (≈ 1.28 µM) | 2.96 µg/mL (≈ 4.75 µM) | 14.1 µg/mL (≈ 22.6 µM) | > 16 µg/mL | 0.72 µg/mL (≈ 1.15 µM) | 6.3 µg/mL (≈ 10.1 µM) | 0.87 µg/mL (≈ 1.39 µM) | > 16 µg/mL | 1.44 µg/mL (≈ 2.31 µM) | 14.1 µg/mL (≈ 22.7 µM) | 3.75 µg/mL (≈ 6.01 µM) | > 16 µg/mL | 4.46 µg/mL (≈ 7.15 µM) | > 16 µg/mL | 5.41 µg/mL (≈ 8.67 µM) | > 16 µg/mL | 1.98 µg/mL (≈ 3.17 µM) | > 16 µg/mL | IC50 [8]: 1.79 µg/mL (≈ 2.87 µM); IC90 [8]: 9.2 µg/mL (≈ 14.7 µM); IC50 [10]: 5.02 µg/mL (≈ 8.05 µM); IC90 [10]: > 16 µg/mL
COC1=C[C@]23CCCN2CCc2cc4c(cc2[C@@H]3[C@@H]1OC(=O)[C@@](O)(CCCC(C)(C)O)CC(=O)N1CCCCC1C)OCO4 (stereo partly shown) [BS-HH-037] | 3.69 µg/mL (≈ 6.02 µM) | > 16 µg/mL | 1.58 µg/mL (≈ 2.58 µM) | 16 µg/mL (≈ 26.1 µM) | > 16 µg/mL | > 16 µg/mL | 0.7 µg/mL (≈ 1.14 µM) | 5.08 µg/mL (≈ 8.29 µM) | 0.41 µg/mL (≈ 0.669 µM) | > 16 µg/mL | 1 µg/mL (≈ 1.63 µM) | 9.86 µg/mL (≈ 16.1 µM) | 1.5 µg/mL (≈ 2.45 µM) | > 16 µg/mL | 16 µg/mL (≈ 26.1 µM) | > 16 µg/mL | 1.96 µg/mL (≈ 3.2 µM) | > 16 µg/mL | 1.44 µg/mL (≈ 2.35 µM) | 16 µg/mL (≈ 26.1 µM) | IC50 [8]: 0.9 µg/mL (≈ 1.47 µM); IC90 [8]: 9.29 µg/mL (≈ 15.2 µM); IC50 [10]: 6.47 µg/mL (≈ 10.6 µM); IC90 [10]: > 16 µg/mL
COC1=C[C@]23CCCN2CCc2cc4c(cc2[C@@H]3[C@@H]1OC(=O)[C@@](O)(CCCC(C)(C)O)CC(=O)N1CCCC(C)C1)OCO4 (stereo partly shown) [BS-HH-038] | 7.37 µg/mL (≈ 12 µM) | > 16 µg/mL | 2 µg/mL (≈ 3.26 µM) | 12 µg/mL (≈ 19.6 µM) | > 16 µg/mL | > 16 µg/mL | 0.32 µg/mL (≈ 0.522 µM) | 4.24 µg/mL (≈ 6.92 µM) | 1.47 µg/mL (≈ 2.4 µM) | 16 µg/mL (≈ 26.1 µM) | 1.22 µg/mL (≈ 1.99 µM) | 16 µg/mL (≈ 26.1 µM) | 1.95 µg/mL (≈ 3.18 µM) | > 16 µg/mL | 16 µg/mL (≈ 26.1 µM) | > 16 µg/mL | 5.72 µg/mL (≈ 9.33 µM) | > 16 µg/mL | 3.71 µg/mL (≈ 6.05 µM) | > 16 µg/mL | IC50 [10]: 8.83 µg/mL (≈ 14.4 µM); IC90 [10]: > 16 µg/mL
CCN1CCN(C(=O)C[C@](O)(CCCC(C)(C)O)C(=O)O[C@@H]2C(OC)=C[C@]34CCCN3CCc3cc5c(cc3[C@H]24)OCO5)CC1 [BS-HH-041] | 3.2 µg/mL (≈ 5.1 µM) | > 16 µg/mL | 2.79 µg/mL (≈ 4.44 µM) | 15 µg/mL (≈ 23.9 µM) | > 16 µg/mL | > 16 µg/mL | 1.85 µg/mL (≈ 2.95 µM) | 16 µg/mL (≈ 25.5 µM) | 0.89 µg/mL (≈ 1.42 µM) | > 16 µg/mL | 1.96 µg/mL (≈ 3.12 µM) | 13.4 µg/mL (≈ 21.3 µM) | 0.9 µg/mL (≈ 1.43 µM) | > 16 µg/mL | 16 µg/mL (≈ 25.5 µM) | > 16 µg/mL | 8.11 µg/mL (≈ 12.9 µM) | > 16 µg/mL | 1.97 µg/mL (≈ 3.14 µM) | > 16 µg/mL | IC50 [8]: 1 µg/mL (≈ 1.59 µM); IC90 [8]: 11.8 µg/mL (≈ 18.9 µM); IC50 [10]: 6.35 µg/mL (≈ 10.1 µM); IC90 [10]: > 16 µg/mL
COC1=C[C@]23CCCN2CCc2cc4c(cc2[C@@H]3[C@@H]1OC(=O)[C@@](O)(CCCC(C)(C)O)CC(=O)NCc1ccco1)OCO4 [BS-HH-043] | > 16 µg/mL | > 16 µg/mL | 11.1 µg/mL (≈ 18.1 µM) | > 16 µg/mL | > 16 µg/mL | > 16 µg/mL | 15 µg/mL (≈ 24.6 µM) | > 16 µg/mL | 13 µg/mL (≈ 21.3 µM) | > 16 µg/mL | > 16 µg/mL | > 16 µg/mL | > 16 µg/mL | > 16 µg/mL | > 16 µg/mL | > 16 µg/mL | > 16 µg/mL | > 16 µg/mL | > 16 µg/mL | > 16 µg/mL | IC50 [8]: > 16 µg/mL; IC90 [8]: > 16 µg/mL; IC50 [10]: > 16 µg/mL; IC90 [10]: > 16 µg/mL
